The assay addresses FGFR2 (Homo sapiens, UniProt P21802). The experiment in a line: FGFR2 Kinase Protocol - Condition 2 (Reaction Biology HotSpot radiometric kinase assay, no preincubation). It counts as biochemical. The note with it: poly[Glu:Tyr] (4:1) 0.2 mg/ml, ATP 100 microM, 2 hr room temperature. The method, then: Example 2: FGFR2 Kinase Protocol—Condition 2
The Reaction Biology HotSpot assay platform (http://www.reactionbiology.com) was used to measure kinase/inhibitor interactions as described previously (Anastassiadis et al., 2011). In brief, for each reaction, kinase and substrate were mixed in a buffer containing 20 mM HEPES (pH 7.5), 10 mM MgCl2, 1 mM EGTA, 0.02% Brij35, 0.02 mg/mL BSA, 0.1 mM Na3VO4, 2 mM DTT, and 1% DMSO. All compounds were in powder form and freshly solubilized in DMSO for assays. Compounds were then added to each reaction mixture via acoustic dispense using an ECHO 550 nanoliter dispenser. For Human FGFR2 wildtype testing, a peptide substrate, poly[Glu:Tyr] (4:1) was used to promote the reaction at a concentration of 0.2 mg/ml. For Human FGFR2 (V564F) testing, a peptide substrate, poly[Glu:Tyr] (4:1) was used to promote the reaction at a concentration of 0.2 mg/ml. ATP concentration for all assays was maintained at 100 micromolar. Compounds were tested in 10-dose IC50 mode with a 3-fold serial dilution. Compounds were added to plates and ATP was added directly to the wells. ATP (Sigma-Aldrich, St. Louis, MO 63178) and [g33P] ATP (specific activity 10 microCi/microliter) purchased at PerkinElmer (Boston, MA, 02118 Cat #BLU 003H250UC) were added at a final total concentration of 100 microM to each well with no preincubation. Reactions were carried out at room temperature for 2 hr and spotted onto P81 ion exchange cellulose chromatography paper (Reaction Biology). Filter paper was washed in 0.75% phosphoric acid to remove unincorporated ATP. The percent remaining kinase activity relative to a vehicle-containing (DMSO) kinase reaction was calculated for each kinase/inhibitor pair. IC50 values were calculated using Dotmatics Knowledge Solutions Studies curve fitting (Dotmatics, Bishops Stortford, UK, CM23).

Chain of FGFR2 (P21802 22-821): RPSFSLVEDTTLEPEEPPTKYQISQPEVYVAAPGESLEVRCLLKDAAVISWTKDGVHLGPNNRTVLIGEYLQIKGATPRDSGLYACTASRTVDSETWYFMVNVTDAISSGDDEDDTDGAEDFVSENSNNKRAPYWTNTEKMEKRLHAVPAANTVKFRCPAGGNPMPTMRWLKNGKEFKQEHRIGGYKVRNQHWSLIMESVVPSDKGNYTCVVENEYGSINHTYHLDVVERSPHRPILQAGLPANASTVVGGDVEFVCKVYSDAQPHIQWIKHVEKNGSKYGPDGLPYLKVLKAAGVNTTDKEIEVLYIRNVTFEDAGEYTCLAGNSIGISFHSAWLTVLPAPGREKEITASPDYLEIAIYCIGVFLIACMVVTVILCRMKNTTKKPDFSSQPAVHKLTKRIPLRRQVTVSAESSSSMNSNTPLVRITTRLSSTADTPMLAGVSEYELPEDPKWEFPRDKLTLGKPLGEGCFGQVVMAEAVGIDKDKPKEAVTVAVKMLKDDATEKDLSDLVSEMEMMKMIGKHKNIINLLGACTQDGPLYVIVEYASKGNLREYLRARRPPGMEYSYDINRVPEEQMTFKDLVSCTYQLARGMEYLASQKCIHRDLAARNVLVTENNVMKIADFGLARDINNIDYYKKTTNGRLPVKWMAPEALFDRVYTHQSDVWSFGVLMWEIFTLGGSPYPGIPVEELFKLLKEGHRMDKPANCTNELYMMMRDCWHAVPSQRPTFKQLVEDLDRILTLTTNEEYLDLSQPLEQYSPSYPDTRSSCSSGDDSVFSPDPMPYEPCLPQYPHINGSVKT

Consider `C=CC(=O)N1C[C@@H](n2nc(C#Cc3cc4ncn(CC)c4cc3F)c3c(N)nccc32)C[C@@H]1COC` [Example 79, 1-[(2R,4S)-4-[4-Amino-3-[2-(1-ethyl-6-fluoro-1,3-benzodiazol-5-yl)ethynyl]pyrazolo[4,3-c]pyridin-1-yl]-2-(methoxymethyl)pyrrolidin-1-yl]prop-2-en-1-one], for which the IC50 is no more than 0.1 µM.
Consider `C=CC(=O)N1C[C@@H](n2nc(C#Cc3ccc4c(cnn4C)c3)c3c(N)nccc32)C[C@@H]1COC` [Example 35, 1-[(2R,4S)-4-[4-amino-3-[2-(1-methylindazol-5-yl)ethynyl]pyrazolo[4,3-c]pyridin-1-yl]-2-(methoxymethyl)pyrrolidin-1-yl]prop-2-en-1-one], for which the half-maximal inhibitory concentration (IC50) fell in the range of 0.1 to 1 µM.
In the case of `C=CC(=O)N1C[C@@H](n2nc(C#Cc3cc4ncn(C5CC5)c4cc3F)c3c(N)ncnc32)C[C@@H]1CF` [Example 197, 1-((2R,4S)-4-(4-Amino-3-((1-cyclopropyl-6-fluoro-1H-benzo[d]imidazol-5-yl)ethynyl)-1H-pyrazolo[3,4-d]pyrimidin-1-yl)-2-(fluoromethyl)pyrrolidin-1-yl)prop-2-en-1-one] it was no more than 0.1 µM.
In the case of `[2H]C([2H])([2H])OC[C@H]1C[C@H](n2nc(C#Cc3c(F)cc4c(ncn4C)c3F)c3c(N)ncnc32)CN1C(=O)C=C` [Example 134, 1-[(2R,4S)-4-[4-Amino-3-[2-(4,6-difluoro-1-methyl-1,3-benzodiazol-5-yl)ethynyl]pyrazolo[3,4-d]pyrimidin-1-yl]-2-[(2H3)methoxymethyl]pyrrolidin-1-yl]prop-2-en-1-one] it was no more than 0.1 µM.
Consider `C=CC(=O)N1CC[C@H](n2nc(C#Cc3cc4ncn(CC)c4c(F)c3Cl)c3c(N)nccc32)C1` [Example 136, (S)-1-(3-(4-Amino-3-((6-chloro-1-ethyl-7-fluoro-1H-benzo[d]imidazol-5-yl)ethynyl)-1H-pyrazolo[4,3-c]pyridin-1-yl)pyrrolidin-1-yl)prop-2-en-1-one], for which the IC50 was no more than 0.1 µM.
`C=CC(=O)N1C[C@@H](n2nc(C#Cc3cc4ncn(C)c4cc3F)c3c(N)nccc32)C[C@@H]1C` [Example 165, 1-((2S,4S)-4-(4-amino-3-((6-fluoro-1-methyl-1H-benzo[d]imidazol-5-yl)ethynyl)-1H-pyrazolo[4,3-c]pyridin-1-yl)-2-methylpyrrolidin-1-yl)prop-2-en-1-one] came in with an IC50 of no more than 0.1 µM.
Regarding `C=CC(=O)N1CC[C@H](n2nc(C#Cc3cc4ncn(C)c4cc3Cl)c3c(N)nccc32)C1` [Example 137, (S)-1-(3-(4-Amino-3-((6-chloro-1-methyl-1H-benzo[d]imidazol-5-yl)ethynyl)-1H-pyrazolo[4,3-c]pyridin-1-yl)pyrrolidin-1-yl)prop-2-en-1-one], the IC50 was no more than 0.1 µM.
In the case of `C=CC(=O)N1C[C@@H](n2nc(C#Cc3cc4nc(C)n(C)c4cc3Cl)c3c(N)ncnc32)C[C@@H]1COC` [Example 96, 1-[(2R,4S)-4-[4-Amino-3-[2-(6-chloro-1,2-dimethyl-1,3-benzodiazol-5-yl)ethynyl]pyrazolo[3,4-d]pyrimidin-1-yl]-2-(methoxymethyl)pyrrolidin-1-yl]prop-2-en-1-one] it was no more than 0.1 µM; in that of `C=CC(=O)N1C[C@@H](n2nc(C#Cc3cc4ncn(CC)c4cc3Cl)c3c(N)nccc32)C[C@@H]1C(F)F` [Example 183, 1-((2R,4S)-4-(4-amino-3-((6-chloro-1-ethyl-1H-benzo[d]imidazol-5-yl)ethynyl)-1H-pyrazolo[4,3-c]pyridin-1-yl)-2-(difluoromethyl)pyrrolidin-1-yl)prop-2-en-1-one], no more than 0.1 µM.
`C=CC(=O)N1CC[C@H](n2nc(C#Cc3cc4ncn(CC)c4c(F)c3F)c3c(N)ncnc32)C1` [Example 153, 1-[(3S)-3-{4-Amino-3-[2-(1-ethyl-6,7-difluoro-1,3-benzodiazol-5-yl)ethynyl]pyrazolo[3,4-d]pyrimidin-1-yl}pyrrolidin-1-yl]prop-2-en-1-one] yielded an IC50 of no more than 0.1 µM.

As usually defined, the IC50 is the point on the concentration scale where inhibition reaches its midpoint.

These data come from patent publication US20230374015A1, “INHIBITORS OF FIBROBLAST GROWTH FACTOR RECEPTOR KINASES” (Kinnate Biopharma Inc., priority 2020, published 2023).
